Structures can show the parent of a compound that is named as a salt.
Assay: LAWSON test: protection against chloroform-induced ventricular fibrillation
Type: in vivo, mice
Details: Mus musculus, po, 0.5 h; female mice, intragastric, 30 minutes before chloroform; salts (hydrochloride); read-out: AD50 (dose protecting 50% of the animals against ventricular fibrillation)
Description: The arrhythmia was induced, in this test, by inhalation of chloroform until breathing stopped.
For each dose of the substance to be studied, batches of 10 female mice, each of about 20 g, were used. These mice had been fasting for 18 hours before the test. A batch of 10 animals was used as control group.
A dose of the compound to be studied was first administered by intragastric route except to the controls which only received the solvent used with the compound in question. Thirty minutes later, the animals were placed under a dome-shaped receptacle containing a high concentration of chloroform obtained by means of a strongly impregnated pad.
The animals were removed when totally asphyxiated (about 2 minutes later), the thorax was rapidly opened and the ventricular rhythm observed. The dose of the compound under study which protected 50% of the animals against ventricular fibrillation was then determined.
This protective dose is expressed as AD50 in mg/kg in the following Table. […]
Another comparative test was performed under the same conditions with
several compounds included within the scope of U.S. Pat. No. 3,882,129 at
the single dose of 100 mg/kg by intragastric route.
The following results were obtained which are expressed in percentage of protection obtained against the arrhythmic effect at the studied dose: […]

Point of comparison: O=C(Nc1ccc(Br)cc1)O[C@H]1CCN(CCCOc2ccc(F)cc2)[C@H]2CCCC[C@H]12 (relative stereo) [4-[(4-Bromo-phenyl)-carbamoyloxy]-1-[3-(4-fluoro-phenoxy)-propyl]-trans-decahydroquinoline hydrochloride (equatorial form)], ED50 120 mg/kg. Against it:
- NC(=O)O[C@@H]1CCN(CCCOc2ccc(Cl)cc2)[C@H]2CCCC[C@H]12 (relative stereo) [hydrogen, 3, O, 4-chloro-phenyl, axial, 4-Carbamoyloxy-1-[3-(4-chloro-phenoxy)-propyl]-trans-decahydroquinoline hydrochloride (axial form)] — not separable, > 100 mg/kg
- COc1cc(C(C)=O)ccc1OCCCN1CC[C@@H](OC(N)=O)[C@H]2CCCC[C@@H]21 (relative stereo) [1-[3-(4-Acetyl-2-methoxy-phenoxy)-propyl]-4-carbamoyloxy-trans-decahydroquinoline hydrochloride (axial form)] — not separable, > 100 mg/kg
- COc1cc(C(C)=O)ccc1OCCCN1CC[C@@H](OC(=O)Nc2ccc(Br)cc2)[C@H]2CCCC[C@@H]21 (relative stereo) [1-[3-(4-Acetyl-2-methoxy-phenoxy)-propyl]-4-[4-(bromo-phenyl)-carbamoyloxy]-trans-decahydroquinoline hydrochloride (axial form)] — not separable, > 100 mg/kg
- COc1ccccc1OCCN1CC[C@@H](OC(N)=O)[C@H]2CCCC[C@@H]21 (relative stereo) [hydrogen, 2, O, 2-methoxy-phenyl, axial, 4-Carbamoyloxy-1-[2-(2-methoxy-phenoxy)-ethyl]-trans-decahydroquinoline hydrochloride (axial form)] — 1.6-fold lower, 75 mg/kg
- NC(=O)O[C@H]1CCN(CCCOc2ccc(F)cc2)[C@H]2CCCC[C@H]12 (relative stereo) [4-Carbamoyloxy-1-[3-(4-fluoro-phenoxy)-propyl]-trans-decahydroquinoline hydrochloride (equatorial form)] — 2.7-fold lower, 45 mg/kg
- Cc1ccc(NC(=O)O[C@H]2CCN(CCCOc3ccc(F)cc3)[C@H]3CCCC[C@H]23)cc1Cl (relative stereo) [4-[(3-Chloro-4-methyl-phenyl)-carbamoyloxy]-1-[3-(4-fluoro-phenoxy)-propyl]-trans-decahydroquinoline hydrochloride (equatorial form)] — 4-fold lower, 30 mg/kg
- NC(=O)O[C@@H]1CCN(CCOc2c(Cl)cccc2Cl)[C@H]2CCCC[C@H]12 (relative stereo) [4-Carbamoyloxy-1-[2-(2,6-dichloro-phenoxy)-ethyl]-trans-decahydroquinoline hydrochloride (axial form)] — 2.4-fold lower, 50 mg/kg
- Cc1ccc(OCCCN2CC[C@@H](OC(N)=O)[C@H]3CCCC[C@@H]32)cc1 (relative stereo) [hydrogen, 3, O, 4-methyl-phenyl, axial, 4-Carbamoyloxy-1-[3-(4-methyl-phenoxy)-propyl]-trans-decahydroquinoline hydrochloride (axial form)] — not separable, > 100 mg/kg
- NC(=O)O[C@@H]1CCN(CCCOc2ccccc2)[C@H]2CCCC[C@H]12 (relative stereo) [hydrogen, 3, O, phenyl, axial, 4-Carbamoyloxy-1-(3-phenoxy-propyl)-trans-decahydroquinoline hydrochloride (axial form)] — not separable, > 100 mg/kg
- NC(=O)O[C@@H]1CCN(CCOc2cccc3ccccc23)[C@H]2CCCC[C@H]12 (relative stereo) [hydrogen, 2, O, 1-naphthyl, axial, 4-Carbamoyloxy-1-[2-(1-naphthyloxy)-ethyl]-trans-decahydroquinoline hydrochloride (axial form)] — 1.6-fold lower, 75 mg/kg
- CCCCNC(=O)O[C@@H]1CCN(CCCOc2ccc(F)cc2)[C@H]2CCCC[C@H]12 (relative stereo) [n-butyl, 3, O, 4-fluoro-phenyl, axial, 4-(N-n-butylcarbamoyloxy)-1-[3-(4-fluoro-phenoxy)-propyl]-trans-decahydroquinoline hydrochloride (axial form)] — 2.4-fold lower, 50 mg/kg
- CCCNC(=O)O[C@@H]1CCN(CCCOc2ccc(F)cc2)[C@H]2CCCC[C@H]12 (relative stereo) [n-propyl, 3, O, 4-fluoro-phenyl, axial, 1-[3-(4-Fluoro-phenoxy)-propyl]-4-(N-n-propyl-carbamoyloxy)-trans-decahydroquinoline hydrochloride (axial form)] — 1.5-fold lower, 80 mg/kg
- NC(=O)O[C@@H]1CCN(CCOc2ccc(F)cc2)[C@H]2CCCC[C@H]12 (relative stereo) [hydrogen, 2, O, 4-fluoro-phenyl, axial, 4-Carbamoyloxy-1-[2-(4-fluoro-phenoxy)-ethyl]-trans-decahydroquinoline hydrochloride (axial form)] — not separable, > 100 mg/kg
- O=C(Nc1ccc(Br)cc1)O[C@@H]1CCN(CCCOc2ccc(F)cc2)[C@H]2CCCC[C@H]12 (relative stereo) [4-[(4-Bromo-phenyl)-carbamoyloxy]-[1-3-(4-fluoro-phenoxy)-propyl]-trans-decahydroquinoline hydrochloride (axial form)] — within 1.5-fold, 150 mg/kg
- COc1ccc(OCCCN2CC[C@@H](OC(N)=O)[C@H]3CCCC[C@@H]32)cc1 (relative stereo) [hydrogen, 3, O, 4-methoxy-phenyl, axial, 4-Carbamoyloxy-1-[3-(4-methoxy-phenoxy)-propyl]-trans-decahydroquinoline hydrochloride (axial form)] — not separable, > 100 mg/kg
- NC(=O)O[C@@H]1CCN(CCCOc2ccc3ccccc3c2)[C@H]2CCCC[C@H]12 (relative stereo) [hydrogen, 3, O, 2-naphthyl, axial, 4-Carbamoyloxy-1-[3-(2-naphthyloxy)-propyl]-trans-decahydroquinoline hydrochloride (axial form)] — not separable, > 100 mg/kg
- NC(=O)O[C@@H]1CCN(CCCOc2cccc3ccccc23)[C@H]2CCCC[C@H]12 (relative stereo) [hydrogen, 3, O, 1-naphthyl, axial, 4-Carbamoyloxy-1-[3-(1-naphthyloxy)-propyl]-trans-decahydroquinoline hydrochloride (axial form)] — not separable, > 100 mg/kg
- NC(=O)O[C@@H]1CCN(CCCSc2ccc(F)cc2)[C@H]2CCCC[C@H]12 (relative stereo) [hydrogen, 3, S, 4-fluoro-phenyl, axial, 4-Carbamoyloxy-1-[3-(4-fluoro-phenylthio)-propyl]-trans-decahydroquinoline hydrochloride (axial form)] — not separable, > 100 mg/kg
- O=C(Nc1ccccc1)O[C@@H]1CCN(CCCOc2ccc(F)cc2)[C@H]2CCCC[C@H]12 (relative stereo) [phenyl, 3, O, 4-fluoro-phenyl, axial, 1-[3-(4-Fluoro-phenoxy)-propyl]-4-(N-phenylcarbamoyloxy)-trans-decahydroquinoline hydrochloride (axial form)] — not separable, > 100 mg/kg
- Cc1ccc(NC(=O)O[C@@H]2CCN(CCCOc3ccc(F)cc3)[C@H]3CCCC[C@H]23)cc1Cl (relative stereo) [4-[3-(Chloro-4-methyl-phenyl)-carbamoyloxy]-1-[3-(4-fluoro-phenoxy)-propyl]-trans-decahydroquinoline hydrochloride (axial form)] — not separable, > 100 mg/kg

Same assay, conditions: female mice, intragastric, 30 minutes before chloroform; salts (hydrochloride)

In the case of CNC(=O)O[C@@H]1CCN(CCCOc2ccc(F)cc2)[C@H]2CCCC[C@H]12 (relative stereo) [methyl, 3, O, 4-fluoro-phenyl, axial, 1-[3-(4-Fluoro-phenoxy)-propyl]-4-(N-methylcarbamoyloxy)-trans-decahydroquinoline hydrochloride (axial form)], the “AD50 (dose protecting 50% of the animals against ventricular fibrillation)” value is reported as 55 mg/kg.

From patent publication US4332805A, “Decahydroquinolinol derivatives and methods of treating cardiac arrythmias or inducing local anaesthesia with them” (priority 1979, dated 1982)
